This is an account of results in BindingDB's records for doi:10.1016/j.bmcl.2013.04.079 (Bristol-Myers Squibb, 2013).

A word on the IC50: it is the midpoint of a concentration-inhibition curve.

Each structure is given as a SMILES string.

The nature of one test: Antagonist activity at human CCR1 assessed as inhibition of HCC-1-induced chemotaxis.
For `CC(C)[C@@H](NC(=O)[C@@H]1CC[C@@H](O)C1)C(=O)N1CC[C@](O)(c2ccc(Cl)cc2)C(C)(C)C1`, the IC50 was determined as 4 nM.

A short description of the next test: Antagonist activity at human CCR1 assessed as inhibition of RANTES-induced chemotaxis.
Turning to `CC(C)[C@@H](NC(=O)[C@@H]1CC[C@@H](O)C1)C(=O)N1CC[C@](O)(c2ccc(Cl)cc2)C(C)(C)C1`, the IC50 amounted to 1 nM.

A further test can be described thus: Antagonist activity at human CCR1 assessed as inhibition of MPIF-1-induced chemotaxis.
On to `CC(C)[C@@H](NC(=O)[C@@H]1CC[C@@H](O)C1)C(=O)N1CC[C@](O)(c2ccc(Cl)cc2)C(C)(C)C1`, for which the IC50 was 2.7 nM.

A short description of another test: Antagonist activity at human CCR1 assessed as inhibition of MIP1alpha-induced chemotaxis.
On to `CC(C)[C@@H](NC(=O)c1ccccc1)C(=O)N1CC[C@](O)(c2ccc(Cl)cc2)C(C)(C)C1`, for which the IC50 stood at 10 nM.

In the case of `CC(C)[C@@H](NC(=O)c1cccnc1)C(=O)N1CC[C@](O)(c2ccc(Cl)cc2)C(C)(C)C1`, the IC50 turned out to be 6.1 nM.

`CC(C)[C@@H](NC(=O)[C@@H]1CCC[C@@H]1N)C(=O)N1CC[C@](O)(c2ccc(Cl)cc2)C(C)(C)C1`: the IC50 worked out at 5.6 nM.

`CC(C)[C@@H](NC(=O)c1cccc(-c2ccccc2NC(N)=O)c1)C(=O)N1CC[C@](O)(c2ccc(Cl)cc2)C(C)(C)C1`: the IC50 came out at 48 nM.

As to `CCC(=O)N[C@@H](C(=O)N1CC[C@](O)(c2ccc(Cl)cc2)C(C)(C)C1)C(C)C`, the IC50 is 3.6 nM.

On to `CC(C)[C@@H](NC(=O)[C@@H]1CC[C@@H](O)C1)C(=O)N1CC[C@](O)(c2ccc(Cl)cc2)C(C)(C)C1`, for which the IC50 came out at 2.1 nM.

Consider `CC(C)[C@@H](NC(=O)c1cccc(S(N)(=O)=O)c1)C(=O)N1CCC(c2ccc(Cl)cc2)CC1`, for which the IC50 amounted to 123 nM.

In the case of `CC(C)[C@@H](NC(=O)c1ccc(Cl)cc1)C(=O)N1CC[C@](O)(c2ccc(Cl)cc2)C(C)(C)C1`, the IC50 was found to be 5.5 nM.

As for `CC(C)[C@@H](NC(=O)[C@H]1CC[C@H](O)C1)C(=O)N1CC[C@](O)(c2ccc(Cl)cc2)C(C)(C)C1`, the IC50 worked out at 12 nM.

In the case of `CC(=O)N[C@@H](C(=O)N1CC[C@](O)(c2ccc(Cl)cc2)C(C)(C)C1)C(C)C`, the IC50 is 15 nM.

On to `CC(C)[C@@H](NC(=O)c1ccccc1Cl)C(=O)N1CC[C@](O)(c2ccc(Cl)cc2)C(C)(C)C1`, for which the IC50 worked out at 4.7 nM.

With `CC(C)[C@@H](NC(=O)c1cccc(-c2ccccc2NC(N)=O)c1)C(=O)N1CCC(c2ccc(Cl)cc2)CC1`, the IC50 was 153 nM.

Consider `CC(C)[C@@H](NC(=O)Cc1ccncc1)C(=O)N1CC[C@](O)(c2ccc(Cl)cc2)C(C)(C)C1`, for which the IC50 is 3.5 nM.

Take `CC(C)[C@@H](NC(=O)c1cccnc1)C(=O)N1CC[C@](O)(c2ccc(Cl)cc2)C2(CC2)C1`: the IC50 is 21 nM.

`CC(C)[C@@H](NC(=O)C1CCCC1(O)CCN1CCOCC1)C(=O)N1CC[C@](O)(c2ccc(Cl)cc2)C(C)(C)C1` (stereo partly drawn): the IC50 is 8.3 nM.

On to `CC(C)[C@@H](NC(=O)C1CCCC1)C(=O)N1CCN(c2ccc(Cl)cc2)C(C)(C)C1`, for which the half-inhibitory concentration (IC50) was 18 nM.

With `CC(C)[C@@H](NC(=O)Cc1ccccc1)C(=O)N1CC[C@](O)(c2ccc(Cl)cc2)C(C)(C)C1`, the IC50 stood at 1.8 nM.

With `CC(C)[C@@H](NC(=O)C1CCCC1)C(=O)N1CC[C@](O)(c2ccc(Cl)cc2)C(C)(C)C1`, the IC50 came to 2.5 nM.

In the case of `CC(C)CC(=O)N[C@@H](C(=O)N1CC[C@](O)(c2ccc(Cl)cc2)C(C)(C)C1)C(C)C`, the IC50 was determined as 1.9 nM.

Turning to `CC(C)[C@@H](NC(=O)Cc1ccncc1)C(=O)N1CCC(c2ccc(Cl)cc2)CC1`, the 50% inhibitory concentration (IC50) is 107 nM.

As to `CC(C)[C@@H](NC(=O)c1ccc(F)c(O)c1)C(=O)N1CC[C@](O)(c2ccc(Cl)cc2)C(C)(C)C1`, the IC50 came out at 13 nM.

For `CC(C)[C@@H](NC(=O)[C@@H]1CCC[C@@H]1O)C(=O)N1CC[C@](O)(c2ccc(Cl)cc2)C(C)(C)C1`, the IC50 came to 3.1 nM.

With `CC(C)[C@@H](NC(=O)c1cccnc1)C(=O)N1CC[C@H](c2ccc(Cl)cc2)C(C)(C)C1`, the IC50 turned out to be 29 nM.

With `CC(C)[C@@H](NC(=O)c1cccc(S(N)(=O)=O)c1)C(=O)N1CC[C@](O)(c2ccc(Cl)cc2)C(C)(C)C1`, the IC50 came to 9.9 nM.

For the compound `CC(C)[C@@H](NC(=O)c1ccc(F)c(O)c1)C(=O)N1CCC(c2ccc(Cl)cc2)CC1`, the IC50 stood at 48 nM.

For `CC(C)[C@@H](NC(=O)[C@@H]1CC[C@H](O)C1)C(=O)N1CC[C@](O)(c2ccc(Cl)cc2)C(C)(C)C1`, the IC50 was 2.9 nM.

In the case of `CC(C)CCC(=O)N[C@@H](C(=O)N1CC[C@](O)(c2ccc(Cl)cc2)C(C)(C)C1)C(C)C`, the half-maximal inhibitory concentration (IC50) is 1.2 nM.

Consider `CC(C)[C@@H](NC(=O)c1cccc(C(=O)O)c1)C(=O)N1CC[C@](O)(c2ccc(Cl)cc2)C(C)(C)C1`, for which the IC50 came to 8.9 nM.

Take `CC(C)[C@@H](NC(=O)[C@H]1CC[C@@H](O)C1)C(=O)N1CC[C@](O)(c2ccc(Cl)cc2)C(C)(C)C1`: the IC50 stood at 1.1 nM.

The next test is described as follows: Antagonist activity at human CCR1 assessed as inhibition of ieukotactin-1-induced chemotaxis.
With `CC(C)[C@@H](NC(=O)[C@@H]1CC[C@@H](O)C1)C(=O)N1CC[C@](O)(c2ccc(Cl)cc2)C(C)(C)C1`, the IC50 was 4.4 nM.
